Measurements taken from the supplement of paper PMC8882468.

What was measured:
Test in all cases: CTG-3D luminescence at 96 h relative to day-0 seeding control (ratio to day 0); higher = more growth / less cytotoxicity
HCI-025 = test system: HCI-025 (organoid from a breast cancer xenograft)
Protocol: (§1)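 PDX-derived breast cancer organoids (PDxO) in 384-well Matrigel plates, 8-point dose (0.000000625-100 uM), 96 h at 37 C; CellTiter-Glo 3D luminescence normalised to the day-0 seeding control (mean of 4 technical replicates over mean of 4 day-0 wells).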

HCI-023 = test system: HCI-023 (organoid from a triple-negative breast cancer xenograft)
Protocol: as §1

HCI-008 = test system: HCI-008 (organoid from a HER2-enriched breast cancer xenograft)
Protocol: as §1

HCI-019 = test system: HCI-019 (organoid from a triple-negative breast cancer xenograft)
Protocol: as §1

O=c1[nH]cc(F)c(=O)[nH]1 [5-fluorouracil]
CTG-3D luminescence at 96 h
Conditions	12.5 pM	0.00025 µM	0.005 µM	0.1 µM	1 µM	10 µM	100 µM	625 fM
HCI-008, days in culture: 228	1.95	2.08	1.74	1.52	1.51	1.51	0.917	1.88
HCI-008, days in culture: 244	1.38	1.81	2.06	1.88	1.6	1.53	1.03	2.2
HCI-019, days in culture: 110	2.01	1.66	1.28	–	–	–	–	–
HCI-019, days in culture: 131	2.46	3.61	3.38	–	–	–	–	–
HCI-019, days in culture: 152	2.48	2.79	–	–	–	–	–	–
HCI-023, days in culture: 111	1.56	1.34	0.973	1.17	0.928	0.875	0.571	1.57
HCI-023, days in culture: 128	1.51	1.68	1.54	1.89	1.4	1.92	1.01	1.58
HCI-025, days in culture: 172	2.59	1.93	3.91	1.56	1.55	0.982	0.597	2.53
HCI-025, days in culture: 209	2.04	2.56	1.99	1.52	1.7	1.25	0.569	1.37
HCI-025, days in culture: 218	1.7	1.9	1.92	1.65	1.37	1.61	0.855	1.86
